Experimental data as given in ChEMBL document CHEMBL3227988, “Synthesis and antiviral activities of arabinofuranosyl-5-ethylpyrimidine nucleosides. Selective antiherpes activity of 1-(beta-D-arabinofuranosyl)-5-ethyluracil” (J Med Chem, 1979).
Values after ≈ are worked out from the molar mass of the structure shown. Active and inactive are the calls of the source. The rule behind the calls is not given here.

test system: Vaccinia virus; assay: Antiviral activity against Vaccinia virus infected in human skin fibroblast cells assessed as inhibition of virus-induced cytopathogenicity at 200 ug/ml treated immediately after virus adsorption measured 2 to 3 days after virus infection; type: functional, organism-based; conditions: Orthopoxvirus vaccinia

| SMILES | inhibition |
| --- | --- |
| CCc1cn([C@H]2O[C@H](CO)[C@@H](O)[C@@H]2O)c(=O)nc1N | inactive |
| CCc1cn([C@H]2O[C@H](CO)[C@@H](O)[C@@H]2O)c(=O)[nH]c1=O | inactive |

test system: Vaccinia virus; assay: Antiviral activity against Vaccinia virus infected in human skin fibroblast cells assessed as inhibition of virus-induced cytopathogenicity treated immediately after virus adsorption measured 2 to 3 days after virus infection; type: functional; conditions: Orthopoxvirus vaccinia

| SMILES | MIC [µg/mL] |
| --- | --- |
| CCc1cn([C@@H]2O[C@H](CO)[C@@H](O)[C@@H]2O)c(=O)[nH]c1=O | > 200 |
| Cc1cn([C@@H]2O[C@H](CO)[C@@H](O)[C@@H]2O)c(=O)[nH]c1=O | 2 (≈ 7.75 µM) |
| CCc1cn([C@@H]2O[C@H](CO)[C@@H](O)[C@@H]2O)c(=O)nc1N | > 200 |
| Nc1ccn([C@@H]2O[C@H](CO)[C@@H](O)[C@@H]2O)c(=O)n1 [CYTARABINE] | 0.02 (≈ 0.0822 µM) |
| O=c1ccn([C@@H]2O[C@H](CO)[C@@H](O)[C@@H]2O)c(=O)[nH]1 [ARAURIDINE] | > 200 |
